In US20260226048A1, “MULTI-CYCLIC IRAK AND FLT3 INHIBITING COMPOUNDS AND USES THEREOF” (CHILDREN'S HOSPITAL MEDICAL CENTER, priority 2023, published 2026):

Molecular target: T1, FLT3 D835V (Homo sapiens, UniProt P36888, D835V)
T1 construct: purchased DiscoverX (KINOMEscan); host or cells: E. coli BL21-derived host (T7 phage) or HEK-293
T1 sequence (P36888 27-993 D835V): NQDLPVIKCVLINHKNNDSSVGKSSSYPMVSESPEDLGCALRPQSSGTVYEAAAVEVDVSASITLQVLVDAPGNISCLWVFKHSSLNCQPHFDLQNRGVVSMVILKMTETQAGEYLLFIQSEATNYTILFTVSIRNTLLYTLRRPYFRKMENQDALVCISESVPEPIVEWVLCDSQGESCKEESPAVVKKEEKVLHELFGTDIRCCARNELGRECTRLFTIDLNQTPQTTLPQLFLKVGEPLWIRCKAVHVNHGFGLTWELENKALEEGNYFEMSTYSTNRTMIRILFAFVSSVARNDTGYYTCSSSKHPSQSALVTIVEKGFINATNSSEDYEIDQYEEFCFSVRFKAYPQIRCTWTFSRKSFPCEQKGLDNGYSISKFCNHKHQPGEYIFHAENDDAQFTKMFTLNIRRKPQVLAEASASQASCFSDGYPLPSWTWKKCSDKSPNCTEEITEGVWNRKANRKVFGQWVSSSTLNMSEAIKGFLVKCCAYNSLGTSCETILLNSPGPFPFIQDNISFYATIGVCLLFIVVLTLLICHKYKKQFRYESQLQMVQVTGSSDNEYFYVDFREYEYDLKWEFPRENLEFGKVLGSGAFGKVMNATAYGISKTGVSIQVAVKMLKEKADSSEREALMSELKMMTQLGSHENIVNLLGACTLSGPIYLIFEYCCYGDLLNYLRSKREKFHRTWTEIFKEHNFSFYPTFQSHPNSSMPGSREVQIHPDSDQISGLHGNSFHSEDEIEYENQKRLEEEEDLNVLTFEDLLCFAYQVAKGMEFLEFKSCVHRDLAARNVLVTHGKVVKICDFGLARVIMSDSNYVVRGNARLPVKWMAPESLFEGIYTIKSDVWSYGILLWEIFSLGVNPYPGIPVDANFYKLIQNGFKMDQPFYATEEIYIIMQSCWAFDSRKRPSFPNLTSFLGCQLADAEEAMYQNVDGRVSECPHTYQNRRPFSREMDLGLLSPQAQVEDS
Test: DiscoverX KINOMEscan competition binding assay, FLT3 D835V
Details: 11-point 3-fold dilution
Description: […]. […] As a result, the data report thermodynamic interaction affinities (Kd values), rather than IC50 values that are dependent on ATP concentrations. The assay uses a DNA-tagged version of the protein kinase, and an immobilized ligand bound to a solid support. Compounds that directly or indirectly prevent kinase binding to the immobilized ligand reduce the amount of kinase captured on the solid support, which is detected using an ultra-sensitive qPCR method. Affinity constants reported from the assay have been reported to be independent of the immobilized ligand used that is coupled to the solid support (See supplemental information in Fabian, M. A. et. al., (2005) Nat. Biotechnol. 23, 329-336; Wodicka, L. M. et. al., (2010) Chem. Biol. 17, 1241-1249.)
Kinase-tagged T7 phage strains were prepared in an E. coli host derived from the BL21 strain. E. coli were grown to log-phase and infected with T7 phage and incubated with shaking at 32° C. until lysis. The lysates were centrifuged and filtered to remove cell debris. The remaining kinases were produced in HEK-293 cells and subsequently tagged with DNA for qPCR detection. Streptavidin-coated magnetic beads were treated with biotinylated small molecule ligands for 30 minutes at room temperature to generate affinity resins for kinase assays. The liganded beads were blocked with excess biotin and washed with blocking buffer (SeaBlock (Pierce), 1% BSA, 0.05% Tween 20, 1 mM DTT) to remove unbound ligand and to reduce non-specific binding. […] Test compounds were prepared as 111× stocks in 100% DMSO. Kds were determined using an 11-point 3-fold compound dilution series with three DMSO control points. All compounds for Kd measurements are distributed by acoustic transfer (non-contact dispensing) in 100% DMSO. The compounds were then diluted directly into the assays such that the final concentration of DMSO was 0.9%. All reactions were performed in polypropylene 384-well plates. Each was a final volume of 0.02 mL. […] The kinase concentration in the eluates was measured by qPCR.
Binding constants (Kds) were calculated with a standard dose-response curve using the Hill equation. The Hill Slope was set to −1. Curves were fitted using a non-linear least square fit with the Levenberg-Marquardt algorithm.

Structure (SMILES): COc1cc2ncc(-c3nc(N[C@H]4CNCC[C@@H]4F)ncc3F)n2nc1C1CC1 [Compound 1a, 4-(6-cyclopropyl-7-methoxyimidazo[1,2-b]pyridazin-3-yl)-5-fluoro-N-((3S,4S)-4-fluoropiperidin-3-yl)pyrimidin-2-amine]
- Kd: < 0.17 nM

Structure (SMILES): FC(F)COc1cc2ncc(-c3ccnc(N[C@H]4CNCC[C@@H]4F)n3)n2nc1C1CC1 [Compound 4a, 4-(6-cyclopropyl-7-(2,2-difluoroethoxy)imidazo[1,2-b]pyridazin-3-yl)-N-((3 S,4S)-4-fluoropiperidin-3-yl)pyrimidin-2-amine]
- Kd: < 0.17 nM

Structure (SMILES): COc1cc2ncc(-c3nc(N[C@H]4CNCC[C@@H]4F)ncc3F)n2nc1C(C)(C)O [Compound 45a, 2-(3-(5-fluoro-2-(((3S,4S)-4-fluoropiperidin-3-yl)amino)pyrimidin-4-yl)-7-methoxyimidazo[1,2-b]pyridazin-6-yl)propan-2-ol]
- Kd: 0.87 nM

Structure (SMILES): CC(C)(O)c1ccc2ncc(-c3nc(N[C@H]4CNCC[C@@H]4F)ncc3F)n2c1 [Compound 46a, 2-(3-(5-fluoro-2-(((3S,4S)-4-fluoropiperidin-3-yl)amino)pyrimidin-4-yl)imidazo[1,2-a]pyridin-6-yl)propan-2-ol]
- Kd: 0.53 nM

Structure (SMILES): COc1cc2ncc(-c3nc(N[C@H]4CNCC[C@@H]4F)ncc3F)n2nc1C1COC1 [Compound 92a, 5-fluoro-N-((3S,4S)-4-fluoropiperidin-3-yl)-4-(7-methoxy-6-(oxetan-3-yl)imidazo[1,2-b]pyridazin-3-yl)pyrimidin-2-amine]
- Kd: < 0.17 nM

Structure (SMILES): CC(C)(O)c1cn2c(-c3nc(N[C@H]4CNCC[C@@H]4F)ncc3F)cnc2cn1 [Compound 100a, 2-(3-(5-fluoro-2-(((3S,4S)-4-fluoropiperidin-3-yl)amino)pyrimidin-4-yl)imidazo[1,2-a]pyrazin-6-yl)propan-2-ol]
- Kd: 2.1 nM

Structure (SMILES): COc1cc2ncc(-c3nc(N[C@H]4CNCC[C@@H]4F)ncc3F)n2nc1N1CCCS1(=O)=O [Compound 112a, 2-(3-(5-fluoro-2-(((3S,4S)-4-fluoropiperidin-3-yl)amino)pyrimidin-4-yl)-7-methoxyimidazo[1,2-b]pyridazin-6-yl)isothiazolidine 1,1-dioxide]
- Kd: < 0.17 nM
